Patent US20160324796A1, “COMPOSITIONS AND THEIR USE TO TREAT COMPLICATIONS OF ANEURYSMAL SUBARACHNOID HEMMORRHAGE” (Edge Therapeutics, Inc., priority 2007, published 2016)
Read-outs that look alike come from different tables or passages of the source.

Key:
[1] = Preclinical Study 2: CSF (cisterna magna) concentration of nimodipine; format: in vivo, mongrel dogs; details: oral nimodipine 0.86 mg/kg six times per day
Source text: (§1) On days 8 and 15, the animals were anesthetized, and angiography, removal of CSF from the cistern magna and collection of plasma, were repeated. Other endpoints included daily blood pressure measurements, behavior assessment, and brain and spinal cord pathology. Animals were euthanized under anesthesia on day 28 or 49, perfused with PBS and then neutral buffered formalin, and the brains subjected to histological analysis.
Values are means±standard error of the mean (n=8 per measurement).

[2] = cited from earlier work
[3] = Mice, Male, cited from earlier work
[4] = Rats, Male, cited from earlier work
[5] = mongrel, dog, in vivo
Source text: as §1
The animals are grouped according to whether the animals died or were euthanized at an unscheduled time (DOS) or underwent scheduled necropsy (SNC).

[6] = cited from earlier work; remark: listed apart in the source
[7] = Plasma nimodipine after single subcutaneous injection of nimodipine PLGA microparticles; format: in vivo, Wistar rats; details: rats, up to day 15
Experimental: The rats were divided into separate treatment groups: one control group for treatment with a nimodipine reference solution (control group) and several test groups for treatment with exemplary nimodipine formulations (microparticle test group) according to the described invention. […] The test article was reconstituted with an injection vehicle volume of 0.15 or 0.70 ml, and the entire volume of each reconstituted vial was drawn up immediately and administered individually to each animal. Blood samples were collected from two alternating cohorts of 2 or 3 animals per cohort in the microparticle formulation-injected groups. Collection was immediately before injection and then 1, 12, and 24 hours post dose, and on days 4, 8, 11, and 15. After the last blood sample collection interval, the surviving animals were euthanized via carbon dioxide inhalation. Euthanasia was confirmed by cervical dislocation and anesthesia.

COCCOC(=O)C1=C(C)NC(C)=C(C(=O)OC(C)C)C1c1cccc([N+](=O)[O-])c1 (stereo not shown) [nimodipine, Isopropyl 2-methoxyethyl 1,4-dihydro-2,6-dimethyl-4-(m-nitrophenyl)-3,5-pyridinedicarboxylate]
CSF nimodipine concentrations [1]: low or undetectable
LD50 ([2]; Dogs, Male and female, Intravenous): 4 mg/kg
LD50 ([2]; both, dog, in vivo, po): 1000 to 2000 mg/kg
LD50 ([3]; Intravenous): 33 mg/kg
LD50 ([3]; Oral): 3562 mg/kg
LD50 ([4]; Intravenous): 16 mg/kg
LD50 ([4]; Oral): 6599 mg/kg
Brain discoloration, red, # of animals ([5]; female, 28 d): 0
Brain focus/foci, red, # of animals ([5]; female, 28 d): 0
Brain nodule, # of animals ([5]; female, 28 d): 0
Brain: chromatolysis, central, neuronal; minimal ([5]; female, 28 d): 0
Brain: degeneration, axonal/myelin; mild ([5]; female, 28 d): 0
Brain: degeneration, axonal/myelin; minimal ([5]; female, 28 d): 0
Brain: degeneration; mild ([5]; female, 28 d): 0
Brain: degeneration; minimal ([5]; female, 28 d): 0
Brain: fibroplasia; mild ([5]; female, 28 d): 0
Brain: fibroplasia; minimal ([5]; female, 28 d): 0
Brain: granulation tissue; mild ([5]; female, 28 d): 0
Brain: granulation tissue; minimal ([5]; female, 28 d): 0
Brain: hemorrhage; minimal ([5]; female, 28 d): 0
Brain: hemorrhage; moderate ([5]; female, 28 d): 0
Brain: inflammation, granulomous; minimal ([5]; female, 28 d): 0
Brain: inflammation, meningeal; minimal ([5]; female, 28 d): 0
Brain: inflammation, subacute/chronic; mild ([5]; female, 28 d): 0
Brain: macrophages, pigmented; mild ([5]; female, 28 d): 0
Brain: macrophages, pigmented; minimal ([5]; female, 28 d): 0
Brain: mineralization focal; minimal ([5]; female, 28 d): 0
Brain: neovascularization; minimal ([5]; female, 28 d): 0
Brain: within normal limits ([5]; female, 28 d): 0
Spinal Cord, Cervical: degeneration, axonal/myelin; minimal ([5]; female, 28 d): 0
Spinal Cord, Cervical: fibroplasia; minimal ([5]; female, 28 d): 0
Spinal Cord, Cervical: fibroplasia; moderate ([5]; female, 28 d): 0
Spinal Cord, Cervical: inflammation, granulomatous; minimal ([5]; female, 28 d): 0
Spinal Cord, Cervical: inflammation, subacute/chronic; mild ([5]; female, 28 d): 0
Spinal Cord, Cervical: macrophages, pigmented; minimal ([5]; female, 28 d): 0
Spinal Cord, Cervical: within normal limits ([5]; female, 28 d): 0
Spinal Cord, Lumbar: fibroplasia; minimal ([5]; female, 28 d): 0
Spinal Cord, Lumbar: hemorrhage; minimal ([5]; female, 28 d): 0
Spinal Cord, Lumbar: mineralization; minimal ([5]; female, 28 d): 0
Spinal Cord, Lumbar: within normal limits ([5]; female, 28 d): 0
Spinal Cord, Thoracic: fibroplasia; minimal ([5]; female, 28 d): 0
Spinal Cord, Thoracic: hemorrhage; minimal ([5]; female, 28 d): 0
Spinal Cord, Thoracic: inflammation, granulomatous; minimal ([5]; female, 28 d): 0
Spinal Cord, Thoracic: inflammation, subacute/chronic; minimal ([5]; female, 28 d): 0
Spinal Cord, Thoracic: macrophages, pigmented; minimal ([5]; female, 28 d): 0
Spinal Cord, Thoracic: within normal limits ([5]; female, 28 d): 0
Brain discoloration, red, # of animals ([5]; female, 49 d): 0
Brain focus/foci, red, # of animals ([5]; female, 49 d): 0
Brain nodule, # of animals ([5]; female, 49 d): 0
Brain: chromatolysis, central, neuronal; minimal ([5]; female, 49 d): 0
Brain: degeneration, axonal/myelin; mild ([5]; female, 49 d): 0
Brain: degeneration, axonal/myelin; minimal ([5]; female, 49 d): 0
Brain: degeneration; mild ([5]; female, 49 d): 0
Brain: fibroplasia; mild ([5]; female, 49 d): 0
Brain: fibroplasia; minimal ([5]; female, 49 d): 0
Brain: granulation tissue; mild ([5]; female, 49 d): 0
Brain: granulation tissue; minimal ([5]; female, 49 d): 0
Brain: hemorrhage; mild ([5]; female, 49 d): 0
Brain: hemorrhage; minimal ([5]; female, 49 d): 0
Brain: hemorrhage; moderate ([5]; female, 49 d): 0
Brain: infiltration, lymphoid, perivascular; minimal ([5]; female, 49 d): 0
Brain: inflammation, granulomous; mild ([5]; female, 49 d): 0
Brain: inflammation, granulomous; minimal ([5]; female, 49 d): 0
Brain: inflammation, meningeal; minimal ([5]; female, 49 d): 0
Brain: inflammation, subacute/chronic; mild ([5]; female, 49 d): 0
Brain: macrophages, pigmented; mild ([5]; female, 49 d): 0
Brain: macrophages, pigmented; minimal ([5]; female, 49 d): 0
Brain: mineralization focal; minimal ([5]; female, 49 d): 0
Brain: neovascularization; minimal ([5]; female, 49 d): 0
Brain: within normal limits ([5]; female, 49 d): 0
Spinal Cord, Cervical: degeneration, axonal/myelin; minimal ([5]; female, 49 d): 0
Spinal Cord, Cervical: fibroplasia; mild ([5]; female, 49 d): 0
Spinal Cord, Cervical: fibroplasia; minimal ([5]; female, 49 d): 0
Spinal Cord, Cervical: fibroplasia; moderate ([5]; female, 49 d): 0
Spinal Cord, Cervical: hemorrhage; minimal ([5]; female, 49 d): 0
Spinal Cord, Cervical: inflammation, granulomatous; minimal ([5]; female, 49 d): 0
Spinal Cord, Cervical: inflammation, granulomatous; moderate ([5]; female, 49 d): 0
Spinal Cord, Cervical: inflammation, subacute/chronic; mild ([5]; female, 49 d): 0
Spinal Cord, Cervical: macrophages, pigmented; minimal ([5]; female, 49 d): 0
Spinal Cord, Cervical: within normal limits ([5]; female, 49 d): 0
Spinal Cord, Lumbar: fibroplasia; minimal ([5]; female, 49 d): 0
Spinal Cord, Lumbar: hemorrhage; minimal ([5]; female, 49 d): 0
Spinal Cord, Lumbar: mineralization; minimal ([5]; female, 49 d): 0
Spinal Cord, Lumbar: within normal limits ([5]; female, 49 d): 0
Spinal Cord, Thoracic: fibroplasia; minimal ([5]; female, 49 d): 0
Spinal Cord, Thoracic: hemorrhage; minimal ([5]; female, 49 d): 0
Spinal Cord, Thoracic: inflammation, granulomatous; minimal ([5]; female, 49 d): 0
Spinal Cord, Thoracic: inflammation, subacute/chronic; minimal ([5]; female, 49 d): 0
Spinal Cord, Thoracic: macrophages, pigmented; minimal ([5]; female, 49 d): 0
Spinal Cord, Thoracic: within normal limits ([5]; female, 49 d): 0
Brain discoloration, red, # of animals ([5]; male, 28 d): 0
Brain focus/foci, red, # of animals ([5]; male, 28 d): 0
Brain nodule, # of animals ([5]; male, 28 d): 0
Brain: chromatolysis, central, neuronal; minimal ([5]; male, 28 d): 0
Brain: degeneration, axonal/myelin; mild ([5]; male, 28 d): 0
Brain: degeneration, axonal/myelin; minimal ([5]; male, 28 d): 0
Brain: degeneration; mild ([5]; male, 28 d): 0
Brain: degeneration; minimal ([5]; male, 28 d): 0
Brain: granulation tissue; mild ([5]; male, 28 d): 0
Brain: granulation tissue; minimal ([5]; male, 28 d): 0
Brain: hemorrhage; mild ([5]; male, 28 d): 0
Brain: hemorrhage; minimal ([5]; male, 28 d): 0
Brain: hemorrhage; moderate ([5]; male, 28 d): 0
Brain: infiltration, lymphoid, perivascular; minimal ([5]; male, 28 d): 0
Brain: inflammation, meningeal; minimal ([5]; male, 28 d): 0
Brain: inflammation, subacute/chronic; mild ([5]; male, 28 d): 0
Brain: inflammation, subacute/chronic; minimal ([5]; male, 28 d): 0
Brain: macrophages, pigmented; minimal ([5]; male, 28 d): 0
Brain: mineralization focal; minimal ([5]; male, 28 d): 0
Brain: neovascularization; minimal ([5]; male, 28 d): 0
Brain: within normal limits ([5]; male, 28 d): 0
Spinal Cord, Cervical: degeneration, axonal/myelin; minimal ([5]; male, 28 d): 0
Spinal Cord, Cervical: fibroplasia; minimal ([5]; male, 28 d): 0
Spinal Cord, Cervical: inflammation, granulomatous; moderate ([5]; male, 28 d): 0
Spinal Cord, Cervical: within normal limits ([5]; male, 28 d): 0
Spinal Cord, Lumbar: fibroplasia; minimal ([5]; male, 28 d): 0
Spinal Cord, Lumbar: hemorrhage; minimal ([5]; male, 28 d): 0
Spinal Cord, Lumbar: mineralization; minimal ([5]; male, 28 d): 0
Spinal Cord, Lumbar: within normal limits ([5]; male, 28 d): 0
Spinal Cord, Thoracic: fibroplasia; minimal ([5]; male, 28 d): 0
Spinal Cord, Thoracic: hemorrhage; minimal ([5]; male, 28 d): 0
Spinal Cord, Thoracic: inflammation, granulomatous; minimal ([5]; male, 28 d): 0
Spinal Cord, Thoracic: inflammation, subacute/chronic; minimal ([5]; male, 28 d): 0
Spinal Cord, Thoracic: macrophages, pigmented; minimal ([5]; male, 28 d): 0
Spinal Cord, Thoracic: within normal limits ([5]; male, 28 d): 0
Brain discoloration, red, # of animals ([5]; male, 49 d): 0
Brain focus/foci, red, # of animals ([5]; male, 49 d): 0
Brain nodule, # of animals ([5]; male, 49 d): 0
Brain: chromatolysis, central, neuronal; minimal ([5]; male, 49 d): 0
Brain: degeneration, axonal/myelin; mild ([5]; male, 49 d): 0
Brain: degeneration, axonal/myelin; minimal ([5]; male, 49 d): 0
Brain: degeneration; mild ([5]; male, 49 d): 0
Brain: degeneration; minimal ([5]; male, 49 d): 0
Brain: fibroplasia; minimal ([5]; male, 49 d): 0
Brain: granulation tissue; mild ([5]; male, 49 d): 0
Brain: granulation tissue; minimal ([5]; male, 49 d): 0
Brain: hemorrhage; mild ([5]; male, 49 d): 0
Brain: hemorrhage; minimal ([5]; male, 49 d): 0
Brain: hemorrhage; moderate ([5]; male, 49 d): 0
Brain: infiltration, lymphoid, perivascular; minimal ([5]; male, 49 d): 0
Brain: inflammation, granulomous; mild ([5]; male, 49 d): 0
Brain: inflammation, meningeal; minimal ([5]; male, 49 d): 0
Brain: inflammation, subacute/chronic; mild ([5]; male, 49 d): 0
Brain: macrophages, pigmented; mild ([5]; male, 49 d): 0
Brain: macrophages, pigmented; minimal ([5]; male, 49 d): 0
Brain: mineralization focal; minimal ([5]; male, 49 d): 0
Brain: neovascularization; minimal ([5]; male, 49 d): 0
Brain: within normal limits ([5]; male, 49 d): 0
Spinal Cord, Cervical: degeneration, axonal/myelin; minimal ([5]; male, 49 d): 0
Spinal Cord, Cervical: fibroplasia; minimal ([5]; male, 49 d): 0
Spinal Cord, Cervical: fibroplasia; moderate ([5]; male, 49 d): 0
Spinal Cord, Cervical: hemorrhage; minimal ([5]; male, 49 d): 0
Spinal Cord, Cervical: inflammation, granulomatous; minimal ([5]; male, 49 d): 0
Spinal Cord, Cervical: inflammation, granulomatous; moderate ([5]; male, 49 d): 0
Spinal Cord, Cervical: inflammation, subacute/chronic; mild ([5]; male, 49 d): 0
Spinal Cord, Cervical: macrophages, pigmented; minimal ([5]; male, 49 d): 0
Spinal Cord, Lumbar: fibroplasia; minimal ([5]; male, 49 d): 0
Spinal Cord, Lumbar: hemorrhage; minimal ([5]; male, 49 d): 0
Spinal Cord, Lumbar: mineralization; minimal ([5]; male, 49 d): 0
Spinal Cord, Lumbar: within normal limits ([5]; male, 49 d): 0
Spinal Cord, Thoracic: fibroplasia; minimal ([5]; male, 49 d): 0
Spinal Cord, Thoracic: hemorrhage; minimal ([5]; male, 49 d): 0
Spinal Cord, Thoracic: inflammation, granulomatous; minimal ([5]; male, 49 d): 0
Spinal Cord, Thoracic: inflammation, subacute/chronic; minimal ([5]; male, 49 d): 0
Spinal Cord, Thoracic: macrophages, pigmented; minimal ([5]; male, 49 d): 0
Spinal Cord, Thoracic: within normal limits ([5]; male, 49 d): 0
LD50 ([6]; Rabbits, Female, Intravenous): 2.5 mg/kg
LD50 ([6]; female, rabbit, in vivo, po): 5000 mg/kg
plasma nimodipine concentrations over time [7]: sustained release of nimodipine over time
